Structures are written as SMILES.

As a reminder, the melting point is the temperature of the solid-liquid transition. `O=c1[nH]c2cc(Cl)ccc2n1C1CCNCC1` came in with a melting point of 200 to 206 °C. Then `CCCCCCCCCCCCCCCCOc1cc(C(=O)OCC)cc(C(=O)OCC)c1`, with 45 °C; and `CC1SC(c2cccnc2)N(C2CCCCC2)C1=O` (centres undefined), with 120 to 125 °C; and `COC(=O)N(CC(=O)O)C(=O)c1cccc2c(C(F)(F)F)c(OC)ccc12`, with 148 to 150 °C. Compound `N#Cc1[nH]c2ccc(Cl)cc2c1-c1ccccc1` returned a melting point of 115 to 117 °C. As to `NCc1ccc2[nH]ccc2c1`, the melting point lay in the range of 114 to 115 °C.

In turn, `COc1ccc(-c2cc(=O)c3c(O)cc(OCC4=COC(C)(C)O4)cc3o2)cc1OCC1=COC(C)(C)O1` showed a melting point of 155 to 156 °C. `O=C(O)Cc1ccc2c(c1)N(C1CCN(CCc3ccc(F)cc3)CC1)CC2` registered a melting point of 130 to 132 °C. The compound `CNC(=O)Cc1cccc(NC(=O)NC)c1` gave a melting point of 175 to 177 °C. Regarding `O=C1CCCSC1C(=O)c1ccc([N+](=O)[O-])cc1Cl` (centres undefined), the melting point lay within 59.5 to 62.5 °C. For `CC(C)C[C@H]1[C@@H]2C(=O)N(Cc3ccccc3)C(=O)[C@@H]2[C@H](c2ccc(C#N)cc2)N1C` (racemic), the melting point fell in the range of 173 to 174 °C. Compound `COc1ccc(N2CCOCC2)c2sc(C(=O)NC3CCN(C(=O)OC(C)(C)C)CCC3O)nc12` (centres undefined) displayed a melting point of 71 to 73 °C. In turn, `CC(=O)Nc1ccc(Sc2cccn3nc(Nc4ccc(C5CCN(C(=O)OC(C)(C)C)CC5)cc4)nc23)cc1` showed a melting point of 226 to 228 °C. For the compound `CN=Cc1ccc(-c2ccc(OC)c(Br)c2)cc1`, the melting point was 115 to 117 °C.

Compound `CC(C)(C)c1cc(CCC(=O)O)cc2c1OC(=O)C2` yielded a melting point of 167 to 169 °C. `Cc1ccc(C(=S)c2cccc3c2NC(=O)C3)cc1` gave a melting point of 167 to 169 °C. Compound `CSCCC(S)C(=O)NC1(C(=O)NC(Cc2ccc(-c3ccsc3)nc2)C(=O)O)CCCC1` (centres undefined) had a melting point of 170 to 172 °C. Then `C(=Nc1ccc(Nc2ccccc2)cc1)Nc1ccc(Nc2ccccc2)cc1`, with 173 to 175 °C; and `CC(=O)N1C(=O)C(C(=O)Cc2cccs2)c2ccccc21` (centres undefined), with 136 to 137 °C; and `CCN(CC)C(=O)c1cc2ccccc2c(-c2cccc(C(F)(F)F)c2)n1`, with 76 °C. Consider `CCOC(=O)C(C)(C)Oc1ccc(CCCC(=O)NN(Cc2cc(F)cc(F)c2)C(N)=O)cc1`, for which the melting point was in the range of 108 to 109 °C. Consider `CC1=C2CCc3cc(C)ccc3N2CCC1=O`, for which the melting point was 143 to 145 °C. `CCOC(=O)CNC(=O)c1nc2ccc(Cl)nn2c1C`: the melting point was in the range of 192 to 195 °C. `CC1CC(=O)c2cc([N+](=O)[O-])ccc2O1` (centres undefined) had a melting point of 144 to 145 °C. `COc1cc(C(C)C)c2c(c1)S(=O)(=O)N(COC(=O)c1c(C)c3cc(Cl)ccc3n1C)C2=O` came in with a melting point of 183 to 184 °C. The same measure for `CCNCC1CN(c2c(F)cc3c(=O)c(C(=O)O)cn(C4CC4)c3c2F)CC1C` (centres undefined): 224 to 226 °C. The compound `COc1ccnc(C(=O)Nc2ccc(Oc3ccc(C(F)(F)F)cc3)cc2)c1O` came in with a melting point of 91 to 93 °C. For the compound `CC(C)Oc1ccc(CN/C=C2\C(=O)NC(=O)c3ccc(Br)cc32)cc1O`, the melting point lay in the range of 212 to 213 °C. Then `O=C(C=CCc1ccccc1)NCCCCCC(=O)NO`, with 126 to 128 °C.

`COc1ccc(-c2cn(-c3ccc(C(F)(F)F)cc3F)nn2)cc1` yielded a melting point of 152 to 154 °C. The same measure for `O=C1C2=C(CCCC2)C(=O)N1c1cc(OC2CCCC2)c(Cl)cc1F`: 69 to 75.2 °C; for `Nc1ncc(-c2noc(-c3cnn4c(C(F)(F)F)cc(-c5ccc(C(F)(F)F)cc5)nc34)n2)cn1`: 254 °C. With `Cc1cc(C)c2cc(C3CCNCC3)sc2c1`, the melting point lay in the range of 83 to 88 °C. Turning to `COCOc1ccc(C(=O)OC)c(OCc2ccc(Cl)cc2Cl)c1C`, the melting point lay in the range of 98.8 to 99 °C.

Compound `CCN(CC)CCOc1ccc([N+](=O)[O-])cc1NC(C)=O` registered a melting point of 117 °C. Compound `CN1CCN(C(=O)c2cccc3cc[nH]c23)CC1` registered a melting point of 176 to 178 °C.

For the compound `Cc1ccc(CSc2c(O)cc(C)oc2=O)cc1`, the melting point lay in the range of 134 to 135 °C. Then `CCn1c(=O)c2c(nc(/C=C/c3ccc(OC(C)=O)cc3)n2C)n(CC)c1=O`, with 198 °C.

The compound `CN1CCNC1=C(Br)[N+](=O)[O-]` registered a melting point of 97 °C.

In turn, `O=C(O)C[C@H](NC(=O)Nc1ccc([N+](=O)[O-])cc1)C(=O)O` gave a melting point of 118 to 120 °C. The compound `CCCCc1nc(-c2ccc(C(=O)NCCC(C)(C)C)cc2)no1` showed a melting point of 78 to 80 °C. `CC(C)(C)OC(=O)N1CCC(c2nc3cc(-c4ccc(S(C)(=O)=O)cc4F)ccc3o2)CC1`: the melting point lay within 144 to 147 °C. The same measure for `O=C1CC(NC(=O)C2CCCN3C(=O)CCC(NC(=O)c4ccccc4)C(=O)N23)C(OC2CCCC2)O1` (centres undefined): 172 to 180 °C; for `NC(=O)C1CCc2cc(S(=O)(=O)Cl)ccc2O1` (centres undefined): 147 to 148 °C. Compound `C[C@@H](CO)NC(=S)[C@@H](CC(=O)OC(C)(C)C)NC(=O)OC(C)(C)C` returned a melting point of 70 to 72 °C. `CCCN(CCC)C(=O)Cn1c(-c2cccc(Br)c2)nc2cccnc21` yielded a melting point of 125 to 127 °C. `CCOP(=O)(NCc1cccc(-c2nc(=O)c3ccccc3s2)n1)OCC`: the melting point lay within 135 to 136 °C. Take `O=C(Nc1ccc2cccnc2c1)c1cc2cc(F)ccc2n1Cc1cccc(F)c1`: the melting point was in the range of 222 to 223 °C.

`CC(CCC(F)C(C)(C)O)C1CCC2C3CC=C4CC(O)CC(O)C4(C)C3CCC12C` (centres undefined) yielded a melting point of 156 to 158 °C.

With `CC(=O)N1CCC(Oc2ccc(N3CCCC3)cc2)CC1`, the melting point is 69 to 70 °C. Then `CCOC(=O)c1cnn(-c2ccc(OCC(C)CC)c(C#N)c2)c1` (centres undefined), with 104 °C; and `O=C(NCC(=O)N(O)CCCP(=O)(O)O)OCc1ccccc1`, with 101 to 105 °C; and `O=C(NC1CC1)c1cc(Nc2nc(Cl)nc3ccoc23)[nH]n1`, with 247 °C. Consider `COc1ccccc1Cc1ccc(-c2cnn3c(O)ncnc23)cc1`, for which the melting point lay within 246 to 256 °C.

`O=C(C=C1c2ccccc2-c2ccccc21)NCCCCCC(=O)NO` registered a melting point of 174 to 176 °C.

`CC(=O)OC(C)OC(=O)[C@H](Cc1ccc(-c2c(C)n(C)c(=O)n(C)c2=O)cc1)NC(=O)c1c(C)cccc1Cl` (some centres undefined) came in with a melting point of 84 to 88 °C. Then `CCCCCC(=O)c1c(C)nc2cc(OC)c(OC)cc2c1-c1ccc(OC)c(OC)c1`, with 123 to 125 °C; and `CC(C)(C)C(=O)Oc1cc(C(=O)OCC[Si](C)(C)C)cc2oc(-c3ccccc3)cc(=O)c12`, with 205 °C; and `CC(C)(C)C(=O)Oc1ccc(CNC(=O)c2cccnc2Oc2ccc(F)cc2)cc1`, with 91 to 93 °C. With `Cn1c(C#N)c(C#N)n(-c2cc(O)c(Cl)cc2F)c1=O`, the melting point lay in the range of 210 to 212 °C. Compound `COc1cc(Nc2nccc(NC3CCCCC3)n2)cc(OC)c1OC` came in with a melting point of 128 °C. With `CCNC(=O)c1cccc2[nH][nH]c(=O)c12`, the melting point lay in the range of 209 to 210 °C. With `CC(C(=O)O)c1ccc2nc(N)[nH]c2c1` (centres undefined), the melting point turned out to be 300 °C. Then `CS(=O)Cc1nnc(-c2ccc3occ(-c4cccc(OC(F)(F)F)c4)c3c2)o1` (centres undefined), with 138 to 139 °C; and `Cc1cc(-c2ccc(Cl)cc2)cn2c(-c3nc(-c4ccc(S(N)(=O)=O)cc4)no3)cnc12`, with 311 °C. Then `COc1cc(O)c(-c2ccccc2)nn1`, with 204 to 209 °C; and `COc1ccc([C@@H]2C[C@H]2NC(=O)N(C)O)cc1OC` (relative stereo), with 142 to 144 °C. Then `Clc1ccc2[nH]c3c(c2c1)CN(CCc1ccc2ccccc2n1)CC3`, with 187 to 190 °C; and `COC(=O)CC(=O)c1cc(F)c(F)c(F)c1F`, with 68 to 72 °C. `CC(C)Cc1c(Cl)sc2[nH]c(=O)c(=O)[nH]c12` registered a melting point of over 270 °C. Turning to `CC(C)c1ccc(NC(=O)OC(C)(C)C)c(NC(=O)CC(=O)c2cccc(C#N)c2)c1`, the melting point fell in the range of 179 to 180 °C. `N#Cc1nn(-c2c(Cl)cc(-c3ccc(C(F)(F)F)cc3)cc2Cl)c(N)c1SC(F)(F)F` had a melting point of 181 to 184 °C. `CC(=O)NN=C(C)c1ccc2nnn(Cc3ccc4ncccc4c3)c2n1` had a melting point of 249 to 251 °C. For `N#CC1=C(C2CC2)Nc2n[nH]cc2C1c1ccccc1Br` (centres undefined), the melting point is over 250 °C. `N#CC1=C(C2CCCCCC2)Nc2n[nH]cc2C1c1ccccc1Cl` (centres undefined) displayed a melting point of 146 °C. `CC(C)(C)c1cc(CCc2ccccc2NC(=O)NC2CCCCC2)cc(C(C)(C)C)c1O` returned a melting point of 198 to 200 °C. For `Nc1ccc(C=CC2CSC(=O)NN2)cc1` (centres undefined), the melting point lay within 188 to 196 °C. `CCOC(=O)CCC1CCCC2CCC(=O)NC21` (centres undefined) returned a melting point of 45 to 50 °C. Take `CCCCCCCCCCCCCCCCc1cc2c(s1)-n1c(C)nnc1CN=C2c1ccccc1Cl`: the melting point lay in the range of 58 to 60 °C. With `CC(C)(C)c1csc(-c2cc3cc(Cn4c(C(N)=O)cc5ccccc54)ccc3o2)n1`, the melting point was 151 to 152 °C. Then `CC1CC2OC2C=CC=CC(=O)Cc2c(Cl)c(O)cc(O)c2C(=O)O1` (centres undefined), with 195 °C; and `Cc1ccc(-c2c(C#N)n(C)c(=O)c3cnccc23)cc1`, with 201 to 202 °C. Then `CCCCCCCCCCCCCCOc1ccccc1O`, with 53 to 54 °C. `COc1ccc(-c2ccc(C(=O)O)cc2)cc1OCCCCc1ccccc1`: the melting point was 178 to 179 °C. In turn, `CCCn1cc(C(=O)OCC)c(=O)c2cc(F)c(-n3cccc3)cc21` registered a melting point of 128 to 130 °C. As for `CC(C)(C)OC(=O)NC[C@H]1CN(c2ccc3c(c2)CN(C(=O)OCc2ccccc2)CC3)C(=O)O1`, the melting point lay within 135 to 137 °C.

Compound `CC(O)(CC(=O)O)c1ccc(Oc2ccccc2)cc1` (centres undefined) gave a melting point of 137 to 138 °C. The compound `CCC1(N2C(=O)c3ccccc3C2=O)C(=O)NC(=O)N(C2CCCCC2)C1=O` (centres undefined) came in with a melting point of 248 to 253 °C.

In turn, `O=C(NCCCC(F)(F)F)C(c1ccccc1)c1ccccc1` showed a melting point of 166 °C.

The record behind these values is a melting point compilation (Tetko et al.; mined from patent text by program, amines drawn as free bases though some values may be those of a salt).
